Measured values published in patent publication US5484786A, “Pyran-4-ylmethyl substituted arylalkylaryl-, arylalkenylylaryl-, and arylalkynylarylurea inhibitors of 5-lipoxygenase” (Abbott Laboratories, priority 1993, dated 1996).

Target: T1, 5-Lipoxygenase (Homo sapiens, UniProt P09917)
T1 construct: Human heparinized whole blood was preincubated with test compounds; from tissue; host or cells: human heparinized whole blood
T1 sequence (P09917 1-674): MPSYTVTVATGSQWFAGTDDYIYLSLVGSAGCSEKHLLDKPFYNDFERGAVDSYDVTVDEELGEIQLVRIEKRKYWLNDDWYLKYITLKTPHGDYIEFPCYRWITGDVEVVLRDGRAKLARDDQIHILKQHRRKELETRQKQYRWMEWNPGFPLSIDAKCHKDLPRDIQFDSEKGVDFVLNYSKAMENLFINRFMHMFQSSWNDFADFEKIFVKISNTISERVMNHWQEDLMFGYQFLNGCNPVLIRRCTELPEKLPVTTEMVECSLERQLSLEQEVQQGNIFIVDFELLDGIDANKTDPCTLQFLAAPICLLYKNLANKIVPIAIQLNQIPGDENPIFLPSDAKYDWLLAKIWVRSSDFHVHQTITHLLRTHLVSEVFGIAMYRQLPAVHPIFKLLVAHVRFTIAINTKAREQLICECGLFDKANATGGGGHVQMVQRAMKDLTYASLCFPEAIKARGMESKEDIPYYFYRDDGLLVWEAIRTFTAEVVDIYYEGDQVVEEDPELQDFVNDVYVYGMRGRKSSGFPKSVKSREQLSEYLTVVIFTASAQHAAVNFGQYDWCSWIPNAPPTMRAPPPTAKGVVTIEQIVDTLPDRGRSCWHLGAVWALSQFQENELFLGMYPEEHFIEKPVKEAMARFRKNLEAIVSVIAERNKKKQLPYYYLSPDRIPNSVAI
Assay: Inhibition of calcium ionophore A23187-induced LTB4 biosynthesis in human whole blood
Assay type: cell-based
Conditions: human heparinized whole blood, 15 min preincubation 37° C., A23187 8.3 μM, 30 min
Experimental: Inhibition of leukotriene biosynthesis was evaluated in an assay, involving calcium ionophore-induced LTB4 biosynthesis expressed human whole blood. Human heparinized whole blood was preincubated with test compounds or vehicle for 15 min 37° C. followed by calcium ionophore A23187 challenge (final concentration of 8.3 μM) and the reaction terminated after 30 min by adding two volumes of methanol containing prostaglandin B2 as an internal recovery standard. The methanol extract was analyzed for LTB4 using a commercially available radioimmunoassay.

CON=C(c1cc(F)cc(OCc2cccc(N(C)C(=O)N(C)C)c2)c1)C1CCOCC1 [Example 43, E- and Z-O-Methyl-4-[(3-(3-(N',N'-dimethylaminocarbonyl-N-methylamino)-benzyloxy)-5-fluoro-phenyl)oximinomethyl]tetrahydropyran]
In vitro inhibitory potency against 5-lipoxygenase from stimulated LTB4 formation in human whole blood (percent inhibition) (@ 3.13 μM): 12%

CON=C(c1cc(F)cc(OCc2ccc(N(C)C(=O)N(C)C)cc2)c1)C1CCOCC1 [Example 5, E- and Z-O-Methyl-4-[(3-(4-N',N'-dimethylaminocarbonyl-N-methylamino)benzyloxy)-5-fluoro-phenyl)oximinomethyl]tetrahydropyran]
In vitro inhibitory potency against 5-lipoxygenase from stimulated LTB4 formation in human whole blood (percent inhibition) (@ 0.78 μM): 100%

CON=C(c1cc(F)cc(OCc2ccc(N(C)C(C)=O)cc2)c1)C1CCOCC1 [Example 1, E- and Z-O-Methyl-4-[(3-(4-(N-acetyl-N-methylamino)benzyloxy)-5-fluoro-phenyl)oximinomethyl]tetrahydropyran]
In vitro inhibitory potency against 5-lipoxygenase from stimulated LTB4 formation in human whole blood (percent inhibition) (@ 1.56 μM): 100%
